Results taken from US7194978B2, “Inducing sterility in fish by disrupting the development of the GnRH system” (University of Maryland Biotechnology Institute, priority 2003, dated 2007).

How the values were obtained:
zebrafish gonads = experiment: Gonadal development in zebrafish, histological analysis of the gonads at 9 weeks; type: in vivo, zebrafish (Danio rerio); details: histology after 9 weeks of growth
Protocol: FIGS. 4A. B and C show the effect of GABA-ergic compounds on gonadal development in zebrafish. Hematoxylineosin staining of gonadal tissues of 9-week old zebrafish exposed at 7–10 days pf to A) no treatment, B) 1 mM GABA and C) 100 μM Muscimol. Note greater degree of organization and more advanced gamete development in A), compared to B) and C). s: somatic cells; o: oogonia; v: oocytes in early stages of vitellogenesis; v*: vitellogenic oocytes with abnormal follicle development. A), C) at 200×; B) 400×.
Zebrafish. Zebrafish larvae 5–8 days post-fertilization (dpf) and 7–10 dpf were immersed in GABA (1 mM) or Muscimol (100 micromolar). Muscimol is a potent GABA agonist that acts specifically on GABAA receptor subtypes. Similar to the post-treatment assays conducted on seabream larvae, zebrafish tissue samples (n=12) were collected at 7, 9, 10, and 12 days pf and also after 9 weeks of growth for detection/analysis of GnRH neuron development and histological analysis of the gonads. […] Confirmation is made to determine the effectiveness of the treatment prior to sexual maturation (or lack thereof).
Zebrafish larvae were immersed in GABA (1 mM) or Muscimol (100 micromolar) at 5–8 days pf and 7–10 days pf. (Muscimol is a potent GABA agonist that acts specifically on GABAA receptor subtypes). Samples (n=12) were collected at 7, 9, 10, and 12 day pf for subsequent detection of GnRH neurons. […]

cGnRH-II expression = experiment: cGnRH-II transcript levels in seabream larvae after GABA immersion, quantitative RT-PCR; type: in vivo, gilthead seabream (Sparus aurata); details: 2-week-old seabream larvae; immersion in GABA 10^−7 to 10^−3 M for 18 hours; sampled 24 hours after treatment
Protocol: (§1) FIGS. 2A, B and C show the effect of GABA treatment on GnRH gene expression during development. Larvae were sampled 24 hours after overnight treatment at 3 days pf ( ? ), 1 week pf ( ? ) or 2 weeks pf ( ? ) and levels of GnRH transcript were measured by quantitative RT-PCR Values on the Y axis are expressed as copy number/20 ng total RNA. Values on the X axis range from 0 to 1 mM GABA. 100 ng total RNA was isolated from tissues using a modified acid-phenol extraction method (TRI REAGENT, MRC, Inc., Cincinnati, Ohio) and reverse transcribed into cDNA using random hexamers and MMLV reverse transcriptase. PCR was performed in 96-well plates on diluted cDNA templates using SYBR® Green PCR Core Reagent (PE Applied Biosystems, Foster City, Calif.) and the relevant GnRH primers. […] For each reaction, the Prism® 7700 generated an amplification plot of fluorescence signal versus cycle number, and CT (the fractional cycle number at which fluorescence passes a baseline threshold value) was determined (Fink et al., 1998). […] Quantitation of the amount of target in each sample was accomplished by comparing CT values of unknowns to standards to determine initial copy number. […]
(§2) Seabream. […] At 24 hours post-treatment, transcript levels for each of the 3 GnRHs in seabream were determined using real-time, fluorescence-based quantitative RT-PCR assays. […]

[1] = test system: forebrain (TN) GnRH neurons; experiment: Developmental migration of GnRH neurons in zebrafish larvae, whole-mount ISH; type: in vivo, zebrafish (Danio rerio); details: sampled at 7, 9, 10, 12 days pf
Excerpt: Digoxigenin (DIG)-labeled complimentary RNA (cRNA) probe was synthesized from plasmid DNA, containing the seabream TN GnRH cDNA, using T7 RNA polymerase. The probe was hybridized to cellular TN GnRH mRNA in whole, fixed 3–22 days pf of larvae. The hybridized probe was then detected with anti-DIG antibody conjugated to alkaline phosphatase (Anti-DIG-AP), and the complex (mRNA:DIG-labeled cRNA:Anti-DIG-AP) was detected by an enzymatic reaction of AP with a chromogenic substrate, which forms a precipitating dark purple pigment. The procedure was performed according to a standard published protocol for whole-mount ISH (Westerfield et al., 1995). The age of the larvae are boxed on the top left of each photograph. TN GnRH-expressing cells are indicated by an arrow.
FIGS. 3A, B and C show the effect of GABA-ergic compounds on developmental migration of TN GnRH neurons in zebrafish. […] Note the extent of neuronal migration toward the brain seen in untreated fish, as compared to treated fish. Whole-mount ISH analysis was done as described in FIG. 1. Differential interference contrasting microscopy was used to visualize TN GnRH hybridization in deep tissue layers of the nasal placode. All panels at 200×.
Zebrafish. Zebrafish larvae 5–8 days post-fertilization (dpf) and 7–10 dpf were immersed in GABA (1 mM) or Muscimol (100 micromolar). […]

sGnRH gene expression = experiment: sGnRH transcript levels in seabream larvae after GABA immersion, quantitative RT-PCR; type: in vivo, gilthead seabream (Sparus aurata); details: immersion in GABA 10^−7 to 10^−3 M for 18 hours, sampled 24 hours after treatment
Protocol: FIGS. 2A, B and C show the effect of GABA treatment on GnRH gene expression during development. Larvae were sampled 24 hours after overnight treatment at 3 days pf ( ? ), 1 week pf ( ? ) or 2 weeks pf ( ? ) and levels of GnRH transcript were measured by quantitative RT-PCR Values on the Y axis are expressed as copy number/20 ng total RNA. Values on the X axis range from 0 to 1 mM GABA. 100 ng total RNA was isolated from tissues using a modified acid-phenol extraction method (TRI REAGENT, MRC, Inc., Cincinnati, Ohio) and reverse transcribed into cDNA using random hexamers and MMLV reverse transcriptase. PCR was performed in 96-well plates on diluted cDNA templates using SYBR® Green PCR Core Reagent (PE Applied Biosystems, Foster City, Calif.) and the relevant GnRH primers. Primers were designed to span intron/exon boundaries in order to avoid amplification of genomic DNA. Amplification reactions were carried out using the ABI Prism® 7700 Sequence Detection System (PE Applied Biosystems), which consists of a built-in thermalcycler, laser irradiation and CCD detector system, and software analysis package. For each reaction, the Prism® 7700 generated an amplification plot of fluorescence signal versus cycle number, and CT (the fractional cycle number at which fluorescence passes a baseline threshold value) was determined (Fink et al., 1998). […] Quantitation of the amount of target in each sample was accomplished by comparing CT values of unknowns to standards to determine initial copy number. […]
as §2
Seabream larvae at 3 days, 1 week and 2 weeks pf were immersed in various concentrations of GABA (10^−7 to 10^−3 M) for a period of 18 hours (200 larvae per treatment). Larvae were collected 24 hours after the treatments and transcript levels for each of the 3 GnRHs were determined using real-time, fluorescence-based quantitative RT-PCR assays.

sbGnRH transcript levels = sbGnRH transcript levels in seabream larvae after GABA immersion, quantitative RT-PCR; type: in vivo, gilthead seabream (Sparus aurata); details: seabream larvae 3 days, 1 week, 2 weeks pf; immersion in GABA 10^−7 to 10^−3 M for 18 hours
Protocol: as §1, §2

[2] = zebrafish larvae immersed in 1 mM GABA at 5–8 dpf and 7–10 dpf
[3] = zebrafish larvae immersed in 100 micromolar Muscimol at 5–8 dpf and 7–10 dpf

| Compound | gonadal development (zebrafish gonads; [2]) | cGnRH-II expression (cGnRH-II expression) | migration of the GnRH neurons [1, 2] | sGnRH gene expression (sGnRH gene expression; 1-week-old seabream larvae) | sGnRH gene expression (sGnRH gene expression; 2-week-old seabream larvae) | sGnRH gene expression (sGnRH gene expression; 3-day-old seabream larvae) | sbGnRH transcript levels (sbGnRH transcript levels) | gonadal development (zebrafish gonads; [3]) | migration of the GnRH neurons [1, 3] |
| --- | --- | --- | --- | --- | --- | --- | --- | --- | --- |
| NCCCC(=O)O [GABA, Gamma-aminobutyric acid] | clearly inhibited | slight increase | clearly inhibited | dose-dependent decrease | no effect | no effect | no definitive effect seen | – | – |
| NCc1cc(=O)[nH]o1 [Muscimol] | – | – | – | – | – | – | – | clearly inhibited | clearly inhibited |
